According to ChEMBL document CHEMBL4020763, “N-(1H-Pyrazol-3-yl)quinazolin-4-amines as a novel class of casein kinase 1δ/ε inhibitors: Synthesis, biological evaluation and molecular modeling studies” (Bioorg Med Chem Lett, 2017):

Legend:
ZR-75-30 [1] = assay: Cytotoxicity against human ZR-7530 cells by MTT assay; format: functional, cell-based
[2] = molecular target: CDK9/cyclin T1 (Homo sapiens) (UniProt O60563+P50750); assay: Inhibition of recombinant human CDK9/cyclin T expressed in insect cells at 10 uM using YSPTSPSYSPTSPSYSPTSPSKKKK as substrate after 30 mins in presence of ATP by scintillation counting method relative to control
BT-20 [3] = assay: Cytotoxicity against human BT20 cells by MTT assay; format: functional, cell-based
MCF7 [4] = assay: Growth inhibition of human MCF7 cells at 100 uM by MTT assay relative to control; format: functional; conditions: read-out: GI
PANC-1 [5] = assay: Growth inhibition of human PANC1 cells at 100 uM by MTT assay relative to control; format: functional; conditions: read-out: GI
[6] = molecular target: Glycogen synthase kinase-3 (Sus scrofa, UniProt B2LUN4+I6LNT8); assay: Inhibition of porcine brain GSK-3 alpha/beta using YRRAAVPPSPSLSRHSSPHQpSEDEEE as substrate after 30 mins in presence of ATP by scintillation counting method
MDA-MB-231 [7] = assay: Cytotoxicity against human MDA-MB-231 cells by MTT assay; format: functional, cell-based
Sus scrofa = organism: Sus scrofa; assay: Inhibition of porcine brain CK1-delta/epsilon at 10 uM using CSK peptide as substrate after 30 mins in presence of ATP by scintillation counting method relative to control
[8] = Inhibition of M-phase starfish oocytes CDK1/cyclin B using histone H1 as substrate after 30 mins in presence of ATP by scintillation counting method; design: species or system Asteroidea
A549 [9] = assay: Cytotoxicity against human A549 cells by MTT assay; format: functional, cell-based
MDA-MB-468 [10] = assay: Cytotoxicity against human MDA-MB-468 cells by MTT assay; format: functional, cell-based
BT-20 [11] = assay: Growth inhibition of human BT20 cells at 100 uM by MTT assay relative to control; format: functional; conditions: read-out: GI
MDA-MB-468 [12] = assay: Growth inhibition of human MDA-MB-468 cells at 100 uM by MTT assay relative to control; format: functional; conditions: read-out: GI
A549 [13] = assay: Growth inhibition of human A549 cells at 100 uM by MTT assay relative to control; format: functional; conditions: read-out: GI
MDA-MB-231 [14] = assay: Growth inhibition of human MDA-MB-231 cells at 100 uM by MTT assay relative to control; format: functional; conditions: read-out: GI
DU-145 = assay: Growth inhibition of human DU145 cells at 100 uM by MTT assay relative to control; format: functional; conditions: read-out: GI
[15] = molecular target: Dual specificity tyrosine-phosphorylation-regulated kinase 1A (Homo sapiens) (UniProt Q13627); assay: Inhibition of recombinant full length human GST-fused DYRK1A expressed in Escherichia coli at 10 uM using RS peptide as substrate after 30 mins in presence of ATP by scintillation counting method relative to control
[16] = molecular target: Cyclin-dependent kinase 5/CDK5 activator 1 (Homo sapiens) (UniProt Q00535+Q15078); assay: Inhibition of recombinant human CDK5/p25 expressed in Escherichia coli at 10 uM using histone H1 as substrate after 30 mins in presence of ATP by scintillation counting method relative to control
Sequence of Cyclin-dependent kinase 5/CDK5 activator 1 (Homo sapiens) (Q00535 whole entry): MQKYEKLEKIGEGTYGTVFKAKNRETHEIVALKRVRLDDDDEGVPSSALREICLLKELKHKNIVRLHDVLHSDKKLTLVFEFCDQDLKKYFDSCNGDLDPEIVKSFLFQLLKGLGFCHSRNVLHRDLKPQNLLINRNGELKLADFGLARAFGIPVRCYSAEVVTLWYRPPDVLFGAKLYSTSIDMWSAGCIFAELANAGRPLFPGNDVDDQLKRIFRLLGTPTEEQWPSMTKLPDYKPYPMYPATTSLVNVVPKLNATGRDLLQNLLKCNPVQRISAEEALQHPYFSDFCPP
Sequence of Cyclin-dependent kinase 5/CDK5 activator 1 (Homo sapiens) (Q15078 99-307 partner limits assumed): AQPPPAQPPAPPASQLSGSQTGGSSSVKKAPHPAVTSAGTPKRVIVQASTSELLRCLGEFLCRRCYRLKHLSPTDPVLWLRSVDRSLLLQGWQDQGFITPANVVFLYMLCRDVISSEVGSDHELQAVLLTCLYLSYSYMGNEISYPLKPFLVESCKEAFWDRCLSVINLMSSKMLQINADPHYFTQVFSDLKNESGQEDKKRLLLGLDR

MCF7 [17] = assay: Cytotoxicity against human MCF7 cells by MTT assay; format: functional, cell-based
[18] = molecular target: Dual specificity protein kinase CLK1 (Mus musculus) (UniProt P22518); assay: Inhibition of recombinant mouse GST-fused CLK1 expressed in Escherichia coli at 10 uM using RS peptide as substrate after 30 mins in presence of ATP by scintillation counting method relative to control
Sequence of Dual specificity protein kinase CLK1 (Mus musculus) (P22518 whole entry, looked up, the tested form may be a part): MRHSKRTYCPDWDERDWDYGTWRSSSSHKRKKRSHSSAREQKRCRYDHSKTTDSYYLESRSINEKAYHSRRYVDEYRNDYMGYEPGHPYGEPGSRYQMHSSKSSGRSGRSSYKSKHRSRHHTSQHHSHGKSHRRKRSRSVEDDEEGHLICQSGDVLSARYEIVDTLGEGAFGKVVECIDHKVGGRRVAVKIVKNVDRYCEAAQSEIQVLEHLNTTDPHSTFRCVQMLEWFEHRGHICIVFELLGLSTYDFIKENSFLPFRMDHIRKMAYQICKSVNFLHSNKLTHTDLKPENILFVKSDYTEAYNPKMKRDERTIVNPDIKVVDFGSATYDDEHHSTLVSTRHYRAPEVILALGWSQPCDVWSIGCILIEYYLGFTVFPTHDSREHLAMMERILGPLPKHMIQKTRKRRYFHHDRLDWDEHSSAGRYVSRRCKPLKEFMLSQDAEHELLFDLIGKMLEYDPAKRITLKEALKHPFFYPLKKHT

[19] = molecular target: Dual specificity protein kinase CLK1 (Mus musculus, UniProt P22518); assay: Inhibition of recombinant mouse GST-fused CLK1 expressed in Escherichia coli using RS peptide as substrate after 30 mins in presence of ATP by scintillation counting method
Sequence of Dual specificity protein kinase CLK1 (P22518 whole entry, the tested form may be a part): as the sequence (P22518 whole entry, looked up, the tested form may be a part) above

[20] = molecular target: CDK2/Cyclin A2 (Homo sapiens) (UniProt P24941+P20248); assay: Inhibition of recombinant human CDK2/cyclin A at 10 uM using histone H1 as substrate after 30 mins in presence of ATP by scintillation counting method relative to control; format: protein-complex assay
HCT-15 [21] = assay: Growth inhibition of human HCT15 cells at 100 uM by MTT assay relative to control; format: functional; conditions: read-out: GI
MIA PaCa-2 [22] = assay: Growth inhibition of human MIAPaCa2 cells at 100 uM by MTT assay relative to control; format: functional; conditions: read-out: GI
ZR-75-1 [23] = assay: Growth inhibition of human ZR-75-1 cells at 100 uM by MTT assay relative to control; format: functional; conditions: read-out: GI
ZR-75-30 [24] = assay: Growth inhibition of human ZR-7530 cells at 100 uM by MTT assay relative to control; format: functional; conditions: read-out: GI
CDK2/Cyclin A2 = CDK2/Cyclin A2 (Homo sapiens, UniProt P24941); assay: Inhibition of recombinant human CDK2/cyclin A using histone H1 as substrate after 30 mins in presence of ATP by scintillation counting method; format: protein-complex assay
HCT-15 [25] = assay: Cytotoxicity against human HCT15 cells by MTT assay; format: functional, cell-based
ZR-75-1 [26] = assay: Cytotoxicity against human ZR-75-1 cells by MTT assay; format: functional, cell-based
[27] = Growth inhibition of HEK293 cells at 100 uM by MTT assay relative to control; format: cell-based; conditions: human, read-out: GI
HEK293 = assay: Cytotoxicity against HEK293 cells by MTT assay; format: cell-based; conditions: Homo sapiens
[28] = Inhibition of porcine brain CK1-delta/epsilon using CSK peptide as substrate after 30 mins in presence of ATP by scintillation counting method; design: species or system Sus scrofa
Asteroidea = assay: Inhibition of M-phase starfish oocytes CDK1/cyclin B at 10 uM using histone H1 as substrate after 30 mins in presence of ATP by scintillation counting method relative to control
MIA PaCa-2 [29] = assay: Cytotoxicity against human MIAPaCa2 cells by MTT assay; format: functional, cell-based
[30] = molecular target: Glycogen synthase kinase-3 (Sus scrofa) (UniProt B2LUN4+I6LNT8); assay: Inhibition of porcine brain GSK-3 alpha/beta at 10 uM using YRRAAVPPSPSLSRHSSPHQpSEDEEE as substrate after 30 mins in presence of ATP by scintillation counting method relative to control
PANC-1 [31] = assay: Cytotoxicity against human PANC1 cells by MTT assay; format: functional, cell-based

COc1cc2ncnc(Nc3cc(-c4ccccc4)n(-c4ccccc4)n3)c2cc1OC
70.7 µM: IC50 (PANC-1 [31])
< 10 µM: IC50 [28]
58.8 µM: IC50 (ZR-75-30 [1])
> 100 µM: IC50 (BT-20 [3]) | IC50 (MDA-MB-468 [10]) | IC50 (MCF7 [17]) | IC50 (ZR-75-1 [26]) | IC50 (HEK293)
72.9 µM: IC50 (MDA-MB-231 [7]) | IC50 (MIA PaCa-2 [29])
< 100 µM: IC50 (A549 [9]) | IC50 (HCT-15 [25])
> 50%: inhibition [2] | inhibition of growth at 100 µM (MCF7 [4]) | inhibition of growth at 100 µM (PANC-1 [5]) | inhibition (Sus scrofa) | inhibition of growth at 100 µM (BT-20 [11]) | inhibition of growth at 100 µM (MDA-MB-468 [12]) | inhibition of growth at 100 µM (A549 [13]) | inhibition of growth at 100 µM (MDA-MB-231 [14]) | inhibition of growth at 100 µM (DU-145) | inhibition [15] | inhibition [16] | inhibition [18] | inhibition [20] | inhibition of growth at 100 µM (HCT-15 [21]) | inhibition of growth at 100 µM (MIA PaCa-2 [22]) | inhibition of growth at 100 µM (ZR-75-1 [23]) | inhibition of growth at 100 µM (ZR-75-30 [24]) | inhibition at 100 µM [27] | inhibition (Asteroidea) | inhibition [30]
> 10 µM: IC50 [6] | IC50 [8] | IC50 [19] | IC50 (CDK2/Cyclin A2)
